Laboratory results reported in PubChem BioAssay AID504755 (Southern Research Specialized Biocontainment Screening …, 2011).
Activity calls are given as the source filed them.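 Rule for the calls: active = viability under 80% of untreated control mean at any tested dose, taken as cytotoxic; inactive = the rest.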

What follows are molecules tested on PC3 viability, CellTiter-Glo luminescence, 72 h (assay: PC3 prostate cell cytotoxicity, dose response, cytotoxicity control for HSV oncolysis enhancer project, selected hits (AID 504755)).

Row | Structure (SMILES) | CC50
1 | COc1cccc(C(=O)NCCCN2CCN(CCCNC(=O)c3cccc(OC)c3)CC2)c1 | > 100 µM (inactive)
2 | CC(=O)NCCCN1CCCN(CCCNC(C)=O)CC1 | > 100 µM (inactive)
3 | CNCCN(C)CCOC(=O)c1cc(OC)cc(OC)c1 | > 100 µM (inactive)
4 | COc1cc(OC)cc(C(=O)OCCN2CCCC2)c1 | > 100 µM (inactive)
5 | COc1cc(OC)cc(C(=O)OCCCN2CCCN(Cc3ccccc3)CC2)c1 | > 100 µM (inactive)
6 | COc1ccc(N2C(=O)CC(N3CCCN(C4CC(=O)N(c5ccc(OC)cc5)C4=O)CC3)C2=O)cc1 (stereo not drawn) | > 100 µM (inactive)
7 | O=C(OCCCN1CCOCC1)c1ccc(F)cc1 | > 100 µM (inactive)
8 | COc1cc(C(=O)OCCN2CCN(C)CC2)cc(OC)c1OC | > 100 µM (inactive)
9 | COc1cc(C(=O)OCCN2CCCC2)cc(OC)c1OC | > 100 µM (inactive)
10 | COc1cc(COCCCN2CCCN(CCCOCc3cc(OC)c(OC)c(OC)c3)CC2)cc(OC)c1OC | > 100 µM (inactive)
11 | COc1cc(C(=O)OCCCN2CCCN(C(=O)OC(C)(C)C)CC2)cc(OC)c1OC | > 100 µM (inactive)
12 | COc1cc(C(=O)OCCCN2CCN(CCCOC(=O)c3cc(OC)c(OC)c(OC)c3)CC2)cc(OC)c1OC | > 100 µM (inactive)
13 | CN1CCCN(CCCOC(=O)c2ccccc2)CC1 | > 100 µM (inactive)
14 | COc1ccc(C(=O)OCCN2CCCN(C)CC2)cc1 | > 100 µM (inactive)
15 | COc1cc(OC)cc(C(=O)OCCCN2CCCN(C)CC2)c1 | > 100 µM (inactive)
16 | COc1cc(-c2cn(CCCN3CCCN(CCCn4cc(-c5cc(OC)c(OC)c(OC)c5)nn4)CC3)nn2)cc(OC)c1OC | > 100 µM (inactive)
17 | CNCCN(C)CCOC(=O)c1cc(OC)c(OC)c(OC)c1 | > 100 µM (inactive)
18 | CN1CCN(CCCOC(=O)c2ccc(F)cc2)CC1 | > 100 µM (inactive)
19 | COc1ccc(C(=O)OCCN2CCCN(Cc3ccccc3)CC2)cc1 | > 100 µM (inactive)
20 | COc1cc(C(=O)OCCN2CCCN(C)CC2)cc(OC)c1OC | > 100 µM (inactive)
21 | COc1ccc(C(=O)OCCCN2CCCC2)cc1 | > 100 µM (inactive)
22 | COc1cc(C(=O)OCCCN2CCCN(CCCOC(=O)c3cc(OC)c(OC)c(OC)c3)CC2)cc(OC)c1OC | > 100 µM (inactive)
23 | COc1ccc(C(=O)OCCN2CCN(CCOC(=O)c3ccc(OC)cc3)CC2)cc1 | > 100 µM (inactive)

Row | Structure (SMILES) | CC50
24 | COc1cc(C(=O)OCCCN2CCCNCC2)cc(OC)c1OC | > 100 µM (inactive)
25 | COc1cc(NC(=O)N2CCCN(C(=O)Nc3cc(OC)c(OC)c(OC)c3)CC2)cc(OC)c1OC | > 100 µM (inactive)
26 | COc1ccc(C(=O)OCCCNCCNCCCOC(=O)c2ccc(OC)cc2)cc1 | 24.1 µM
27 | COc1cc(C(=O)OCCCN(C)CCN(C)CCCOC(=O)c2cc(OC)c(OC)c(OC)c2)cc(OC)c1OC | > 100 µM (inactive)
28 | COc1cc(OC)cc(C(=O)OCCCNCCNCCCOC(=O)c2cc(OC)cc(OC)c2)c1 | 31.7 µM
29 | COc1cc(OC)cc(C(=O)OCCN2CCN(CCOC(=O)c3cc(OC)cc(OC)c3)CC2)c1 | > 100 µM (inactive)
30 | COc1ccc(C(=O)OCCN2CCCN(CCOC(=O)c3ccc(OC)cc3)CC2)cc1 | > 100 µM (inactive)
31 | COc1cc(C(=O)N2CCCN(C(=O)c3cc(OC)c(OC)c(OC)c3)CC2)cc(OC)c1OC | > 100 µM (inactive)
32 | COc1ccc(C(=O)OCCCN2CCN(CCCOC(=O)c3ccc(OC)cc3)CC2)cc1 | > 100 µM (inactive)
33 | O=C(/C=C/c1ccc2c(c1)OCO2)N1CCCN(C(=O)/C=C/c2ccc3c(c2)OCO3)CC1 | > 100 µM (inactive)
34 | O=C(CCN1CCCN(CCC(=O)Nc2ccccc2)CC1)Nc1ccccc1 | > 100 µM (inactive)
35 | COc1cc(C(=O)OCCN2CCN(CCOC(=O)c3cc(OC)c(OC)c(OC)c3)CC2)cc(OC)c1OC | > 100 µM (inactive)
36 | COc1cc(CN2CCCN(Cc3cc(OC)c(OC)c(OC)c3)CC2)cc(OC)c1OC | > 100 µM (inactive)
37 | COc1cc(C(=O)OCCN2CCCN(Cc3ccccc3)CC2)cc(OC)c1OC | > 100 µM (inactive)
38 | CNCCN(C)CCCOC(=O)c1ccc(F)cc1 | > 100 µM (inactive)
39 | COc1cc(C(=O)OCCCN2CCOCC2)cc(OC)c1OC | > 100 µM (inactive)
40 | O=C(OCCCN1CCN(CCCOC(=O)c2ccc(F)cc2)CC1)c1ccc(F)cc1 | > 100 µM (inactive)
41 | COc1ccc(C(=O)OCCCN2CCN(C)CC2)cc1 | > 100 µM (inactive)
42 | CN1CCCN(CCCOC(=O)c2ccc(F)cc2)CC1 | > 100 µM (inactive)
43 | O=C(OCCCN1CCN(CCCOC(=O)c2ccccc2)CC1)c1ccccc1 | > 100 µM (inactive)
44 | COc1cc(C(=O)OCCCN2CCN(C)CC2)cc(OC)c1OC | > 100 µM (inactive)
45 | COc1cc(C(=O)OCCCN2CCCN(C)CC2)cc(OC)c1OC | > 100 µM (inactive)
46 | O=C(NCCCN1CCN(CCCNC(=O)c2ccc3c(c2)OCO3)CC1)c1ccc2c(c1)OCO2 | > 100 µM (inactive)

Row | Structure (SMILES) | CC50
47 | COc1ccc(C(=O)NCCCN2CCCN(C)CC2)cc1 | > 100 µM (inactive)
48 | O=C(OCCCN1CCCN(CCCOC(=O)c2ccc(F)cc2)CC1)c1ccc(F)cc1 | 73.6 µM
49 | COc1cc(C(=O)OCCN2CCCN(CCOC(=O)c3cc(OC)c(OC)c(OC)c3)CC2)cc(OC)c1OC | > 100 µM (inactive)
50 | COc1cc(OC)cc(C(=O)OCCCN2CCN(CCCOC(=O)c3cc(OC)cc(OC)c3)CC2)c1 | 102 µM
51 | COc1cc(OC)cc(C(=O)OCCCN2CCN(C)CC2)c1 | > 100 µM (inactive)
52 | COc1cc(OC)cc(C(=O)OCCN2CCCN(CCOC(=O)c3cc(OC)cc(OC)c3)CC2)c1 | > 100 µM (inactive)
53 | COc1cc(OC)cc(C(=O)OCCN2CCOCC2)c1 | > 100 µM (inactive)
54 | CN1CCN(CCCOC(=O)c2ccccc2)CC1 | > 100 µM (inactive)
55 | COc1cc(C(=O)OCCN2CCOCC2)cc(OC)c1OC | > 100 µM (inactive)
56 | COc1cc(C(=O)OCCCN2CCCC2)cc(OC)c1OC | > 100 µM (inactive)
57 | COc1cc(C(=O)OCCCN2CCCN(C(C)=O)CC2)cc(OC)c1OC | > 100 µM (inactive)
58 | O=C(CN1CCCN(CC(=O)CN2C(=O)c3ccccc3C2=O)CC1)CN1C(=O)c2ccccc2C1=O | > 100 µM (inactive)
59 | COc1cc(C(=O)NCCCN2CCCN(CCCNC(=O)c3cc(OC)c(OC)c(OC)c3)CC2)cc(OC)c1OC | > 100 µM (inactive)
60 | COc1cc(OC)cc(C(=O)OCCN2CCCN(C)CC2)c1 | > 100 µM (inactive)
61 | COc1ccc(C(=O)OCCN2CCN(C)CC2)cc1 | > 100 µM (inactive)
62 | NCCCN1CCCN(CCCN)CC1 | > 100 µM (inactive)
63 | COc1ccc(C(=O)OCCCN2CCOCC2)cc1 | > 100 µM (inactive)
64 | COc1cc(NC(=O)Nc2cc(OC)c(OC)c(OC)c2)cc(OC)c1OC | > 100 µM (inactive)
65 | CNCCN(C)CCCOC(=O)c1ccc(OC)cc1 | > 100 µM (inactive)
66 | COc1cc(C(=O)OCCCN2CCCN(C(=O)c3ccccc3)CC2)cc(OC)c1OC | > 100 µM (inactive)
67 | COc1ccc(C(=O)OCCCN2CCCN(C)CC2)cc1 | > 100 µM (inactive)
68 | COc1cc(OC)cc(C(=O)OCCN2CCN(C)CC2)c1 | > 100 µM (inactive)
